Results taken from patent publication US12565490B2, “Inhibitors of Receptor Interacting Protein Kinase I for the treatment of disease” (Board of Regents, The University of Texas System, priority 2020, dated 2026).

Test system: human monocytic cell line U937
Assay: Human U937 cellular necroptosis assay
Assay type: cell-based
Conditions: U-937; U937 cells stimulated with 25 ng/mL human TNFalpha and 25 μM z-VAD-FMK; 22 hr; viability by Cell Titer-Glo 2.0; read-out: hU937 IC50
Method in brief: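 U937 cells (5000/well) driven to necroptosis by 25 ng/mL human TNFalpha plus 25 μM z-VAD-FMK alongside 1:3-diluted compounds, 22 hr at 37° C, 5% CO2. Viability by CellTiter-Glo luminescence; IC50 from four-parameter logistic fit.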

Going from `CN1C(=O)[C@@H](NC(=O)c2ncc(Cl)c(-c3cccc(Cl)c3)n2)COc2cc(F)cnc21` [Example 81, (S)-5-chloro-4-(3-chlorophenyl)-N-(8-fluoro-5-methyl-4-oxo-2,3,4,5-tetrahydropyrido[3,2-b]-[1,4]oxazepin-3-yl)pyrimidine-2-carboxamide] to `Cc1cccc(-c2nc(C(=O)N[C@H]3COc4cc(F)cnc4N(C)C3=O)ncc2Cl)c1` [Example 83, (S)-5-chloro-N-(8-fluoro-5-methyl-4-oxo-2,3,4,5-tetrahydropyrido[3,2-b]-[1,4]oxazepin-3-yl)-4-(m-tolyl)-pyrimidine-2-carboxamide], the IC50 falls from 29.6 nM to 15.1 nM (2-fold).

Compared with `Cc1ccn(-c2nc(C(=O)N[C@H]3COc4cc(Cl)cnc4N(C)C3=O)ncc2Cl)n1` [Example 107, (S)-5-chloro-N-(8-chloro-5-methyl-4-oxo-2,3,4,5-tetrahydropyrido [3,2-b]-[1,4]oxazepin-3-yl)-4-(3-methyl-1H-pyrazol-1-yl)-pyrimidine-2-carboxamide], `CN1C(=O)[C@@H](NC(=O)c2ncc(Cl)c(-c3ncccc3F)n2)COc2cc(Cl)cnc21` [Example 108, (S)-5-chloro-N-(8-chloro-5-methyl-4-oxo-2,3,4,5-tetrahydropyrido[3,2-b]-[1,4]oxazepin-3-yl)-4-(3-fluoropyridin-2-yl)pyrimidine-2-carboxamide] is 5-fold lower in IC50: 606 nM for the first, 121 nM for the second. The second is the more potent here.

`CN1C(=O)[C@@H](NC(=O)c2ncc(Cl)c(-c3cc(F)ccc3F)n2)COc2cc(C#N)ccc21` [Example 130, (S)-5-chloro-N-(8-cyano-5-methyl-4-oxo-2,3,4,5-tetrahydrobenzo[b]-[1,4]oxazepin-3-yl)-4-(2,5-difluorophenyl)pyrimidine-2-carboxamide] and `CN1C(=O)[C@@H](NC(=O)c2ncc(Cl)c(-c3ccc(Cl)cc3)n2)COc2cc(C#N)ccc21` [Example 131, (S)-5-chloro-4-(4-chlorophenyl)-N-(8-cyano-5-methyl-4-oxo-2,3,4,5-tetrahydrobenzo[b]-[1,4]oxazepin-3-yl)pyrimidine-2-carboxamide] are within 1.5-fold of each other in IC50: 16.1 nM for the first, 22.1 nM for the second.

First: O=C(NC1CCc2ccccc2NC1=O)c1nccc(-c2ccccc2)n1 (stereo not drawn) [Example 4, N-(2-oxo-2,3,4,5-tetrahydro-1H-benzo[b]azepin-3-yl)-4-phenylpyrimidine-2-carboxamide]
Second: Cc1cnc(C(=O)NC2CCc3ccccc3NC2=O)nc1-c1ccccc1 (stereo not drawn) [Example 3, 5-methyl-N-(2-oxo-2,3,4,5-tetrahydro-1H-benzo[b]azepin-3-yl)-4-phenylpyrimidine-2-carboxamide]
The IC50 of the first is 120-fold higher: 2160 nM for the first, 18.5 nM for the second.

First: Cc1cnc(C(=O)N[C@H]2COc3cc(C#N)ccc3N(C)C2=O)nc1N1CC(F)(F)C1 [Example 32, (S)-N-(8-cyano-5-methyl-4-oxo-2,3,4,5-tetrahydro-benzo[b][1,4]oxazepin-3-yl)-4-(3,3-difluoroazetidin-1-yl)-5-methylpyrimidine-2-carboxamide]
Second: Cc1cnc(C(=O)N[C@H]2COc3cc(C#N)ccc3N(C)C2=O)nc1-c1ccccc1F [Example 42, (S)-N-(8-cyano-5-methyl-4-oxo-2,3,4,5-tetrahydro-benzo[b][1,4]oxazepin-3-yl)-4-(2-fluorophenyl)-5-methylpyrimidine-2-carboxamide]
The IC50 of the first is 58-fold higher: 1120 nM for the first, 19.4 nM for the second. The second is the more potent here.

Compared with `CN1C(=O)[C@@H](NC(=O)c2ncc(Cl)c(-c3cc(F)ccc3F)n2)COc2cc(F)cnc21` [Example 74, (S)-5-chloro-4-(2,5-difluorophenyl)-N-(8-fluoro-5-methyl-4-oxo-2,3,4,5-tetrahydropyrido[3,2-b]-[1,4]oxazepin-3-yl)pyrimidine-2-carboxamide], `Cc1cc(F)ccc1-c1nc(C(=O)N[C@H]2COc3cc(F)cnc3N(C)C2=O)ncc1F` [Example 67, (S)-5-fluoro-4-(4-fluoro-2-methylphenyl)-N-(8-fluoro-5-methyl-4-oxo-2,3,4,5-tetrahydropyrido[3,2-b]-[1,4]oxazepin-3-yl)pyrimidine-2-carboxamide] is 2.2-fold higher in IC50: 11 nM for the first, 24.7 nM for the second.

Compared with `Cc1cnc(C(=O)N[C@H]2COc3cc(Cl)cnc3N(C)C2=O)nc1C1COCCO1` (stereo partly drawn) [Example 164, N—((S)-8-chloro-5-methyl-4-oxo-2,3,4,5-tetrahydropyrido[3,2-b][1,4]oxazepin-3-yl)-4-(1,4-dioxan-2-yl)-5-methylpyrimidine-2-carboxamide], `CN1C(=O)[C@@H](NC(=O)c2ncc(Cl)c(-c3ccccc3F)n2)COc2cc(Cl)cnc21` [Example 94, (S)-5-chloro-N-(8-chloro-5-methyl-4-oxo-2,3,4,5-tetrahydropyrido[3,2-b]-[1,4]oxazepin-3-yl)-4-(2-fluorophenyl)pyrimidine-2-carboxamide] is 26-fold lower in IC50: 357 nM for the first, 13.5 nM for the second. The second is the more potent here.

First: Cc1cc(F)ccc1-c1ccnc(C(=O)N[C@H]2COc3cc(F)cnc3N(C)C2=O)n1 [Example 63, (S)-4-(4-fluoro-2-methylphenyl)-N-(8-fluoro-5-methyl-4-oxo-2,3,4,5-tetrahydropyrido[3,2-b]-[1,4]oxazepin-3-yl)pyrimidine-2-carboxamide]
Second: CN1C(=O)[C@@H](NC(=O)c2ncc(Cl)c(-c3ccc(F)cc3)n2)COc2cc(F)cnc21 [Example 71, (S)-5-chloro-N-(8-fluoro-5-methyl-4-oxo-2,3,4,5-tetrahydropyrido[3,2-b]-[1,4]oxazepin-3-yl)-4-(4-fluorophenyl)pyrimidine-2-carboxamide]
The IC50 of the first is 13-fold higher: 117 nM for the first, 8.83 nM for the second.

`Cc1cnc(C(=O)N[C@H]2COc3cccnc3N(C)C2=O)nc1-c1ccccc1F` [Example 45, (S)-4-(2-fluorophenyl)-5-methyl-N-(5-methyl-4-oxo-2,3,4,5-tetrahydropyrido[3,2-b][1,4]oxazepin-3-yl)pyrimidine-2-carboxamide] and `Cc1ccc(-c2nc(C(=O)N[C@H]3COc4cccnc4N(C)C3=O)ncc2Cl)cc1F` [Example 54, (S)-5-chloro-4-(3-fluoro-4-methylphenyl)-N-(5-methyl-4-oxo-2,3,4,5-tetrahydro-pyrido[3,2-b][1,4]oxazepin-3-yl)pyrimidine-2-carboxamide] are within 1.5-fold of each other in IC50: 10 nM for the first, 13.6 nM for the second.

`Cc1ccc(-c2nc(C(=O)N[C@H]3COc4cc(C#N)ccc4N(C)C3=O)ncc2C)c(F)c1` [Example 30, (S)-N-(8-cyano-5-methyl-4-oxo-2,3,4,5-tetrahydro-benzo[b][1,4]oxazepin-3-yl)-4-(2-fluoro-4-methylphenyl)-5-methylpyrimidine-2-carboxamide] and `Cc1cnn(-c2ccc3c(c2)N(C)C(=O)[C@@H](NC(=O)c2ncc(Cl)c(-c4ccc(F)cc4F)n2)CO3)c1` [Example 152, (S)-5-chloro-4-(2,4-difluorophenyl)-N-(5-methyl-7-(4-methyl-1H-pyrazol-1-yl)-4-oxo-2,3,4,5-tetrahydrobenzo[b]-[1,4]oxazepin-3-yl)pyrimidine-2-carboxamide] are within 1.5-fold of each other in IC50: 32.3 nM for the first, 29.2 nM for the second.

Compared with `CN1C(=O)[C@@H](NC(=O)c2ncc(Cl)c(-c3cc(F)c(CO)c(F)c3)n2)COc2cc(F)cnc21` [Example 166, (S)-5-chloro-4-(3,5-difluoro-4-(hydroxymethyl)phenyl)-N-(8-fluoro-5-methyl-4-oxo-2,3,4,5-tetrahydropyrido[3,2-b][1,4]oxazepin-3-yl)pyrimidine-2-carboxamide], `CN1C(=O)[C@@H](NC(=O)c2ncc(Cl)c(-c3ncccc3F)n2)COc2cc(F)cnc21` [Example 85, (S)-5-chloro-N-(8-fluoro-5-methyl-4-oxo-2,3,4,5-tetrahydropyrido[3,2-b]-[1,4]oxazepin-3-yl)-4-(3-fluoropyridin-2-yl)pyrimidine-2-carboxamide] is 3.1-fold higher in IC50: 196 nM for the first, 611 nM for the second.

`CN1C(=O)[C@@H](NC(=O)c2ncc(Cl)c(-c3cc(F)ccc3F)n2)COc2cccnc21` [Example 51, (S)-5-chloro-4-(2,5-difluorophenyl)-N-(5-methyl-4-oxo-2,3,4,5-tetrahydro-pyrido[3,2-b][1,4]oxazepin-3-yl)pyrimidine-2-carboxamide] and `CN1C(=O)[C@@H](NC(=O)c2ncc(Cl)c(-c3ccc(Cl)cc3)n2)COc2cccnc21` [Example 52, (S)-5-chloro-4-(4-chlorophenyl)-N-(5-methyl-4-oxo-2,3,4,5-tetrahydro-pyrido[3,2-b][1,4]oxazepin-3-yl)pyrimidine-2-carboxamide] are within 1.5-fold of each other in IC50: 10.6 nM for the first, 12 nM for the second.

`CN1C(=O)[C@@H](NC(=O)c2ncc(Cl)c(-c3ccccc3)n2)COc2cccnc21` [Example 27, (S)-5-chloro-N-(5-methyl-4-oxo-2,3,4,5-tetrahydropyrido[3,2-b][1,4]oxazepin-3-yl)-4-phenylpyrimidine-2-carboxamide] and `CN1C(=O)[C@@H](NC(=O)c2ncc(CO)c(-c3ccccc3)n2)COc2cc(Cl)cnc21` [Example 126, (S)-N-(8-chloro-5-methyl-4-oxo-2,3,4,5-tetrahydro-pyrido[3,2-b][1,4]oxazepin-3-yl)-5-(hydroxymethyl)-4-phenylpyrimidine-2-carboxamide] are within 1.5-fold of each other in IC50: 26.7 nM for the first, 30 nM for the second.

First: C[C@H]1Oc2cccnc2N(C)C(=O)[C@H]1NC(=O)c1ncc(Cl)c(-c2ccc(F)cc2F)n1 [Example 55, 5-chloro-4-(2,4-difluorophenyl)-N-((2R,3S)-2,5-dimethyl-4-oxo-2,3,4,5-tetrahydropyrido[3,2-b]-[1,4]oxazepin-3-yl)pyrimidine-2-carboxamide]
Second: CN1C(=O)[C@@H](NC(=O)c2ncc(Cl)c(-c3ccc(F)cc3F)n2)COc2ccc(-c3cn[nH]c3)cc21 [Example 151]
The IC50 of the first is 2.6-fold higher: 34.4 nM for the first, 13 nM for the second. The second is the more potent here.

Compared with `CN1C(=O)[C@@H](NC(=O)c2ncc(Cl)c(-c3ccc(F)cc3F)n2)COc2ccc(NCC(F)(F)CCl)cc21` [Example 140, (S)-5-chloro-N-(7-((3-chloro-2,2-difluoropropyl)amino)-5-methyl-4-oxo-2,3,4,5-tetrahydrobenzo[b]-[1,4]oxazepin-3-yl)-4-(2,4-difluorophenyl)pyrimidine-2-carboxamide], `Cc1cnc(C(=O)N[C@H]2CCc3ccccc3NC2=O)nc1-c1cccc(F)c1` [Example 12, (S)-4-(3-fluorophenyl)-5-methyl-N-(2-oxo-2,3,4,5-tetrahydro-1H-benzo[b]azepin-3-yl)pyrimidine-2-carboxamide] is 2.4-fold lower in IC50: 35.4 nM for the first, 14.6 nM for the second.
